The target of assay [1] is T1, Hs CMPK2 (Homo sapiens, UniProt Q5EBM0).
T1 sequence (Q5EBM0 99-449): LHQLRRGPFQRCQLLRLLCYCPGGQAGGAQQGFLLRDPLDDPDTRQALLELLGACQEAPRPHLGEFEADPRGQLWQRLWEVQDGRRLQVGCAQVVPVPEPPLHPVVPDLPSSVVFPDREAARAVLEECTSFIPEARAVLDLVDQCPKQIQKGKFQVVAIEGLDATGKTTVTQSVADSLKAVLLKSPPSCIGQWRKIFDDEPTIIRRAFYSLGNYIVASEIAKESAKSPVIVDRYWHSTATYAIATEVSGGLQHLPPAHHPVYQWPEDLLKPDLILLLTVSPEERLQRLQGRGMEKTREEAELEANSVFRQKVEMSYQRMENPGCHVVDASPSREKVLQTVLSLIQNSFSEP
Put plainly: kinase assay, UTP formation. As to conditions: 1 mM UDP; phosphate donor ATP or GTP; 5 μM enzyme. In kind it is biochemical.

Assay [2] deals with T1, Hs CMPK2. Put plainly: kinase assay, CTP formation. The assay is classed as biochemical. As to conditions: 1 mM CDP; phosphate donor ATP or GTP; 5 μM enzyme.
The target in another assay is PV RdRp (Human poliovirus 1 Mahoney, UniProt P03300). In kind it is biochemical.
A further assay deals with DV RdRp (Dengue virus 2 Peru/IQT2913/1996, UniProt Q9WDA6). Put plainly: primer extension RNA synthesis, denaturing PAGE. The assay is classed as biochemical. As to conditions: 0.1 μM CTP; competes with CTP; incorporated as chain terminator.
The next assay has as its target WNV RdRp (West Nile virus strain NY-99, UniProt Q9Q6P4). Put plainly: primer extension RNA synthesis, denaturing PAGE. In kind it is biochemical.
In another assay the target is T2, HRV-C RdRp (rhinovirus C15, UniProt E5D8F2).
T2 sequence (E5D8F2 1694-2153): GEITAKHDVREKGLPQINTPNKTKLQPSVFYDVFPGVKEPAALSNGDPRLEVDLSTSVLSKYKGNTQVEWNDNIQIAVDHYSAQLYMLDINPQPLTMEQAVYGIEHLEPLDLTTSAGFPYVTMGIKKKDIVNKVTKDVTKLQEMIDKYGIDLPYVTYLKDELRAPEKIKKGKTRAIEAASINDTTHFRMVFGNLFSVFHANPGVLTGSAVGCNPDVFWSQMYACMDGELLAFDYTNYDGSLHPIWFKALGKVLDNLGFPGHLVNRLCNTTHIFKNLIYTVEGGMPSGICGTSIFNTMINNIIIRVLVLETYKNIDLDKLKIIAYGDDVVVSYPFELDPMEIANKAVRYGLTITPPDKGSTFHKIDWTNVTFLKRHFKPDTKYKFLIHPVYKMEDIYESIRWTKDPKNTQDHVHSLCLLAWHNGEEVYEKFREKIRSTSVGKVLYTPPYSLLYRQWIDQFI
In words: primer extension RNA synthesis, denaturing PAGE. The assay is classed as biochemical.

For the next assay, the target named is T3, Hs viperin (Homo sapiens, UniProt Q8WXG1).
T3 sequence (Q8WXG1 1-361): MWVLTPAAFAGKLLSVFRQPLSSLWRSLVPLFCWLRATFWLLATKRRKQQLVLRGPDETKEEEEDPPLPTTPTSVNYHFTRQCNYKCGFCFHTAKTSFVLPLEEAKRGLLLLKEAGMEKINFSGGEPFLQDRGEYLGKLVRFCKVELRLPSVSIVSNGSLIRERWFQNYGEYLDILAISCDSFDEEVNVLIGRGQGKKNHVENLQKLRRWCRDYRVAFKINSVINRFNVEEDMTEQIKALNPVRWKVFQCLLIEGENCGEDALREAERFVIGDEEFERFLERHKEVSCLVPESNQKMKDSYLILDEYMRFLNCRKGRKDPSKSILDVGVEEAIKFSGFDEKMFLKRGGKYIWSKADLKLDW
Put plainly: LC/MS of extracts of transfected HEK293T cells. In kind it is cell-based. As to conditions: endogenous CTP and SAM; vector control.

Sequence of WNV RdRp (Q9Q6P4 2529-3433): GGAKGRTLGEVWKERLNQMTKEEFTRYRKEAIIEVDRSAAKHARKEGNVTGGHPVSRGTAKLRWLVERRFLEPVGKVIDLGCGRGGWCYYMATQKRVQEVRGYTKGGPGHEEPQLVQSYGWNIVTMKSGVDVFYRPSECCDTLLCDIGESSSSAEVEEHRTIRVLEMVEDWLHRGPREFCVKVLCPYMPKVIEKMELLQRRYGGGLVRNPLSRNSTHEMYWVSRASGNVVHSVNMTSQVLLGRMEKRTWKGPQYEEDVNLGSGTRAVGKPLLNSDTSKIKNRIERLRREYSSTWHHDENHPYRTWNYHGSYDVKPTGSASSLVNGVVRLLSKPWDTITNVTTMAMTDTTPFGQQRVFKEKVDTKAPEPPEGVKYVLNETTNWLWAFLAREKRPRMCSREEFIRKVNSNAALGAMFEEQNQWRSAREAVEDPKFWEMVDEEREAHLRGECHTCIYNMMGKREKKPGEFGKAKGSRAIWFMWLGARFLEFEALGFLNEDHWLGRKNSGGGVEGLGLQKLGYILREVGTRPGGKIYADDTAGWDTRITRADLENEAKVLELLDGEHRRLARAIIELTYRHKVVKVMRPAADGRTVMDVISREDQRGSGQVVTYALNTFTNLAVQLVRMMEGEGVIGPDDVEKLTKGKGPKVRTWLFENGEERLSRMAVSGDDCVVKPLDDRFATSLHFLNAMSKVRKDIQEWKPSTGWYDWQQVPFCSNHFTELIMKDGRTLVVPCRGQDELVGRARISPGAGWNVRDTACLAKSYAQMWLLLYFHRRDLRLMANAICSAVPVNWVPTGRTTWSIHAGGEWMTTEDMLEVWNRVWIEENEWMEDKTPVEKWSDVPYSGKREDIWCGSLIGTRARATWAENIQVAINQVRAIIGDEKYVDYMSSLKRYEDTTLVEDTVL
Sequence of DV RdRp (Q9WDA6 2492-3391): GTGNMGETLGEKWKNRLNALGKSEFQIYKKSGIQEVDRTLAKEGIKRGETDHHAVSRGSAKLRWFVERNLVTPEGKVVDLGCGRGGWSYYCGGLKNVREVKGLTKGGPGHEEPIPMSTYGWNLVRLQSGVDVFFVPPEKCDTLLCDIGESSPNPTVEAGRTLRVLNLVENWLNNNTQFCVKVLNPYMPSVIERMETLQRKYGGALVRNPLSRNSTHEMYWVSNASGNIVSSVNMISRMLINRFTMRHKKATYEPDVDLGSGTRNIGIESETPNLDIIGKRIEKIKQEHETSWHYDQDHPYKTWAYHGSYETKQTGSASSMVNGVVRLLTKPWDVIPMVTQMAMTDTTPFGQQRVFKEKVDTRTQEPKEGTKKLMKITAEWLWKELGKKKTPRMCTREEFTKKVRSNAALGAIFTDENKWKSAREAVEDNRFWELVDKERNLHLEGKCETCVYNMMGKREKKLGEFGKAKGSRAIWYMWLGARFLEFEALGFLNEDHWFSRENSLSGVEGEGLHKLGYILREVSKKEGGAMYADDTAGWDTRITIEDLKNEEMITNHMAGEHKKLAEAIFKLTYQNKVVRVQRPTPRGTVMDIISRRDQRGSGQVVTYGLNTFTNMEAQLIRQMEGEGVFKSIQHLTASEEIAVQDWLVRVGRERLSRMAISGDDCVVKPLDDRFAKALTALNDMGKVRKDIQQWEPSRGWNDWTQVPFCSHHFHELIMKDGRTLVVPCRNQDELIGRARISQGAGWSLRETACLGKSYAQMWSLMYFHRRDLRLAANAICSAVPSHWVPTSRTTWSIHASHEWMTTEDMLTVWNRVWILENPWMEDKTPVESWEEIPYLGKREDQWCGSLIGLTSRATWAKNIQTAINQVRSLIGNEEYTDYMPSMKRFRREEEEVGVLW
Sequence of PV RdRp (P03300 1749-2209 limits assumed): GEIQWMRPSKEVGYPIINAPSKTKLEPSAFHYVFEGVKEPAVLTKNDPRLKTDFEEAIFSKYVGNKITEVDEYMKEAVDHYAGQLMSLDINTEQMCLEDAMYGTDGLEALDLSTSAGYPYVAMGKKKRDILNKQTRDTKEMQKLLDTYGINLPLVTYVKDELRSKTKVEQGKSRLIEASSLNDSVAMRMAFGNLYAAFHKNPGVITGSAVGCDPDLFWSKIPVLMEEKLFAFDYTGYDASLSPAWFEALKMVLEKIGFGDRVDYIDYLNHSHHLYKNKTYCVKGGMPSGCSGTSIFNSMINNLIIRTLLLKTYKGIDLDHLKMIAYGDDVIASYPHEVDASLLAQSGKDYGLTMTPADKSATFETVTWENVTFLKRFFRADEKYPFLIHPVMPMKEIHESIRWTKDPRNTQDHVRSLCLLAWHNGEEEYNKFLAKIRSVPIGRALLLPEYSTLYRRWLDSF

Regarding `O=c1ccn([C@@H]2O[C@H](COP(=O)(O)OP(=O)(O)O)[C@@H](O)[C@H]2O)c(=O)[nH]1` [UDP], the “kinase assay, UTP formation” value at Hs CMPK2 [1] was “Hs CMPK2 exhibits significant preference for CDP and UDP as substrates”.

For `Nc1ccn([C@@H]2O[C@H](COP(=O)(O)OP(=O)(O)O)[C@@H](O)[C@H]2O)c(=O)n1` [CDP], the “kinase assay, CTP formation” value on Hs CMPK2 [2] is “Hs CMPK2 exhibits significant preference for CDP and UDP as substrates”.

As a reminder, the IC50 is the concentration that inhibits the measured activity by half. Read a low IC50 as inhibition by little substance. As to `Nc1ccn([C@@H]2OC(COP(=O)(O)OP(=O)(O)OP(=O)(O)O)=C[C@H]2O)c(=O)n1` [ddhCTP], the “primer extension RNA synthesis, denaturing PAGE” value at PV RdRp was “both HRV-C and PV RdRp were poorly inhibited by ddhCTP”. The IC50 on DV RdRp was 60 ± 10 µM; at WNV RdRp, 20 ± 10 µM; on HRV-C RdRp, 900 ± 300 µM. Besides, the “LC/MS of extracts of transfected HEK293T cells” value at Hs viperin is “HEK293T cells transfected with the Hs viperin plasmid exhibited considerable intracellular ddhCTP levels”.

For the compound `Nc1ccn([C@@H]2O[C@H](COP(=O)(O)OP(=O)(O)OP(=O)(O)O)C[C@H]2O)c(=O)n1` [3′-dCTP], at HRV-C RdRp, half-maximal inhibition (IC50) required 5 ± 1 µM.
